The text below walks through data of patent US7786258B2, “Methods for inhibiting immune complex formation in a subject” (Trinity Therapeutics, Inc., priority 2004, dated 2010).

Positions of bridges follow the written chain, without caps; N, C: chain ends. No end group written: not given here.

Test [1] relates to FcγIII. Description: Inhibition of FcR binding to PAP by additional peptides, FcγIII coated plates (Example 8). Conditions: OD read at 405 nm; positive control 1.588. As to the method:
(§1) Falcon microtiter plates were coated with 1:10 dilutions of highly purified FcγIIa, FcγIIb and FcγIII, sealed, and incubated for […] at 4° C. […] PAP immune complexes were formed as described in Example 5. PAP (100 μl) were pre-incubated with 100 μl of peptide for one hour. PAP/peptide mixtures were added to the FcR coated plates and incubated for one hour. After washing, plates were incubated with ABTS substrate for 15 minutes and read at 405 nm.

Test [2] has as its system FcγIIa. Nature of the test: Inhibition of FcR binding to PAP by additional peptides, FcγIIa coated plates (Example 8). As to conditions: for OD 405 nm: OD read at 405 nm, positive control 1.599. The procedure: as §1
Test [3] concerns C1q. Description: Inhibition of C1q binding to immune complexes using additional peptides (Example 6). Also noted: species or system human. Conditions: for OD 405 nm: PAP pre-incubated with peptide or human C1q one hour, C1q coated plates, positive control 2.355. The procedure: The C1q/PAP and peptide/PAP mixtures (100 μl) were incubated with C1q coated plates for 30 minutes. After washing, plates were incubated with ATBS (Quidel Corp.) for 15 minutes and read at 405 nm.

Test [4] concerns RF. Nature of the test: Inhibition of RF binding to immune complexes using additional peptides (Example 5). Conditions: for OD 405 nm: PAP pre-incubated with peptide one hour, RF coated plates, positive control 1.176. The procedure:
The ability of additional peptides to inhibit the binding of RF to immune complexes was tested. Immune complexes (PAP) were formed by mixing 2 μl of rabbit anti-peroxidase with 50 μl of peroxidase in 1 ml distilled water. PAP (100 μl) were pre-incubated with 100 μl of peptide for one hour. Plates coated with RF were blocked with 5× BSA for 24 hours. The PAP/peptide mixtures (100 μl) were incubated with the RF coated plates for 30 minutes. RF (100 μl of a 200 I.U. standard supplied by Research Diagnostics) was used as a negative control. After washing and incubation with ABTS substrate (Quidel Corp., San Diego, Calif.) for 15 minutes, plates were read at 405 nm.

Test [5] relates to FcγIIb. Description: Inhibition of FcR binding to PAP by additional peptides, FcγIIb coated plates (Example 8). As to conditions: OD read at 405 nm; positive control 1.394. As to the method: as §1
Test [6] relates to human monomeric IgG. Description: Inhibition of RF binding to monomeric IgG by additional peptides (Example 7). As to conditions: peptides pre-incubated 1 hour with monomeric IgG, then 200 I.U. RF; positive control 1.312. The procedure:
The ability of additional peptides to inhibit RF binding to monomeric IgG was tested. A standard rheumatoid factor commercial test was used (Research Diagnostics, New Jersey) with the following modifications: 100 μl of test peptides were pre-incubated for 1 hour with human monomeric IgG (Research Diagnostics, New Jersey). Plates were then washed and incubated with 200 I.U. of the RF positive control supplied with the test kit. The rest of the test was performed according to the manufacturer's instructions.

The test system of test [7] is histone. Nature of the test: Inhibition of histone binding: PAP immune complexes on histone-coated plates (Example 3). As to the method:
Inhibition of histone binding: The binding of immune complexes to the kidneys in lupus nephritis appears to involve (a) the binding of histones to the GBM, and then (b) the binding of immune complexes (through the IgG Fc CH2-CH3 cleft) to the bound histones. Experiments similar to those described above were used to inhibit binding of purified histone to IgG Fc binding. Histone (Sigma) was diluted 1:10 in coating buffer (Alpha Diagnostic International) and incubated on Falcon microtiter plates for 24 hours. Plates were blocked with 5× BSA blocking solution (Alpha Diagnostic International) for 24 hours. Freshly prepared 1:10 rabbit PAP (Sigma) was pre-incubated with either peptides or histone for one hour, and 100 μl of the mixture was added to the histone-coated plates for one hour. Plates were incubated with ABTS substrate (Quidel Corp.) for 45 minutes, and OD 405 was read.

Test [8] deals with MBP. As to the method: Inhibition of MBP binding: MBP (Sigma) was diluted 1:10 with coating buffer (Alpha Diagnostic International) and incubated for 24 hours on Falcon microtiter plates. Plates were washed and then blocked with 5× BSA blocking buffer (Alpha Diagnostic International) for 24 hours. Rabbit 1:10 PAP immune complexes were pre-incubated with equal amounts of peptide or MBP for 30 minutes. One hundred μl of PAP immune complexes/peptide or PAP/MBP was then added to the MBP-coated plates and incubated for one hour. The plates were washed and incubated with TMB substrate (Alpha Diagnostic International) for 30 minutes. After adding stop solution (Alpha Diagnostic International), the plates were read at 450 nm.
Further experiments were conducted to determine the effect of SEQ ID NO:47 (also referred to as NB-406) on binding of MBP to IgG PAP immune complexes.

“DCAFHLGELVWCT (disulfide 2-12 (inferred))”: in test [1], the “OD at 405 nm” value is 0.810. Moreover, the “OD 405 nm” value in test [2] is 0.660; in test [3], 0.859; in test [4], 0.267; in test [5] it was 0.510; in test [6] it was 0.962.

In the case of “APPCAFHLGELVWCT (disulfide 4-14 (inferred))”, in test [1], the “OD at 405 nm” value amounted to 0.880. For the same sequence, the “OD 405 nm” value in test [2] stood at 0.605; in test [3] it was 0.983; in test [4] it was 0.226; in test [5], 0.380; in test [6] it was 1.159.

As to “APPDCAWHLGELVWCT (Synthetically generated polypeptide)”, the “OD at 405 nm” value in test [1] is 0.670. In addition, the “OD 405 nm” value in test [2] was found to be 0.509; in test [3], 0.389; in test [4] it was 0.205; in test [5], 0.496; in test [7] (Table 5 experiment, IgG PAP immune complexes, positive control 2.110), 0.227; in test [8] (Table 7 experiment, IgG PAP immune complexes, positive control 2.343), 0.500. For the same sequence, the “OD 405 nm” value in test [6] came to 1.065. Moreover, the “inhibition of FcR binding to PAP, in words” value in test [2] (Table 13, statement for FcγIIa, FcγIIb and FcγIII together) is recorded as “greatest inhibition”. Further, the “inhibition of C1q binding, in words” value in test [3] (Table 11) is “greatest inhibition”. In addition, in test [4] (Table 10), the “inhibition of RF binding to immune complexes, in words” value was “best inhibition”. Also, the “inhibition of histone binding to immune complexes, in words” value in test [7] (text on Tables 4 and 5) is recorded as “significantly inhibit”. Further, the “inhibition of MBP binding to immune complexes, in words” value in test [8] (text on Tables 6 and 7) is on record as “able to inhibit”.

Turning to “APPCAWHLGELVWCT (disulfide 4-14 (inferred))”, the “OD at 405 nm” value in test [1] turned out to be 0.530. Also, the “OD 405 nm” value came to 0.658 in test [2]; 1.148 in test [3]; 0.250 in test [4]; 0.562 in test [5]; 1.166 in test [6].
